From ChEMBL document CHEMBL4118122, “Identification and biological evaluation of thiazole-based inverse agonists of RORγt” (Bioorg Med Chem Lett, 2018) come the findings set out here.

Data set [1] concerns the target Histamine H1 receptor (Homo sapiens, UniProt P35367). The data set is described as follows: Displacement of [3H]pyrilamine from human recombinant histamine H1 receptor at 10 uM after 60 mins by scintillation counting analysis relative to control.
The target in data set [2] is Fibroblast growth factor receptor 1 (Homo sapiens) (UniProt P11362). The data set is described as follows: Inhibition of recombinant His-tagged human FGFR1 cytoplasmic domain expressed in baculovirus expression system at 10 uM in presence of ATP relative to control.
Data set [3] addresses Proto-oncogene tyrosine-protein kinase Src (Homo sapiens) (UniProt P12931). Kind of data set: Inhibition of recombinant full length C-terminal His-tagged human Src cytoplasmic domain expressed in baculovirus expression system at 10 uM in presence of ATP relative to control.
The target in data set [4] is Cyclin-dependent kinase 1/cyclin B1 (Homo sapiens) (UniProt P06493+P14635). Kind of data set: Inhibition of recombinant full length His-tagged human CDK1/Cyclin B expressed in baculovirus expression system at 10 uM in presence of ATP relative to control.
The target of data set [5] is T1, Nuclear receptor ROR-beta (Homo sapiens, UniProt Q92753).
T1 sequence (Q92753 whole entry): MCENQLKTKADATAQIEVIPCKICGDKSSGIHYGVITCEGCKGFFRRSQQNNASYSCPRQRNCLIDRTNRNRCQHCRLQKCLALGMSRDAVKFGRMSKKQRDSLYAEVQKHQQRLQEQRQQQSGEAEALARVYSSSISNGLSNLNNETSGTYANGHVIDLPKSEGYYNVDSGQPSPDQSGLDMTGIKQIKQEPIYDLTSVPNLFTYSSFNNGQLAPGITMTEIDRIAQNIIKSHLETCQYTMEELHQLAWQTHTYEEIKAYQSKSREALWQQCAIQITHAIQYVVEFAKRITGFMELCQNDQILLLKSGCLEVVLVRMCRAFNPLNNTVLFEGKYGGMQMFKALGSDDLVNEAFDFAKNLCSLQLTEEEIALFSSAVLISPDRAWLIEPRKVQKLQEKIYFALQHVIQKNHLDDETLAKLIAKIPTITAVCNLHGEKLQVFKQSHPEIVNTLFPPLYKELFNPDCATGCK
The data set is described as follows: Inverse agonist activity at human GAL4 DBD-fused RORbeta LBD (201 to 452 residues) expressed in HEK293T cells assessed as reduction in ROR mediated transcriptional activity after 24 hrs by dual glo luciferase reporter gene assay. In kind it is cell-based.

Data set [6] concerns the target Aurora kinase A (Homo sapiens) (UniProt O14965). The data set is described as follows: Inhibition of recombinant full length His-tagged human Aurora A expressed in baculovirus expression system at 10 uM in presence of ATP relative to control.
The target in data set [7] is Muscarinic acetylcholine receptor M2 (Homo sapiens) (UniProt P08172). The data set is described as follows: Displacement of [3H]AF-DX 384 from human recombinant M2 receptor at 10 uM after 60 mins by scintillation counting analysis relative to control.
The target of data set [8] is 5-hydroxytryptamine receptor 2A (Homo sapiens, UniProt P28223). Kind of data set: Displacement of [3H]ketanserin human recombinant 5-HT2A receptor after 60 mins by scintillation counting analysis.
Data set [9] concerns the target Cytochrome P450 2D6 (Homo sapiens, UniProt P10635). Kind of data set: Inhibition of CYP2D6 (unknown origin). In kind it is ADME.
Data set [10] has as its target Endothelin-1 receptor (Homo sapiens) (UniProt P25101). The data set is described as follows: Displacement of [125I]-endothelin-1 from human recombinant ETA receptor at 1 uM after 120 mins by scintillation counting analysis relative to control.
In data set [11] the target is T2, PXR (NR1I2) (Homo sapiens, UniProt O75469).
T2 sequence (O75469 whole entry): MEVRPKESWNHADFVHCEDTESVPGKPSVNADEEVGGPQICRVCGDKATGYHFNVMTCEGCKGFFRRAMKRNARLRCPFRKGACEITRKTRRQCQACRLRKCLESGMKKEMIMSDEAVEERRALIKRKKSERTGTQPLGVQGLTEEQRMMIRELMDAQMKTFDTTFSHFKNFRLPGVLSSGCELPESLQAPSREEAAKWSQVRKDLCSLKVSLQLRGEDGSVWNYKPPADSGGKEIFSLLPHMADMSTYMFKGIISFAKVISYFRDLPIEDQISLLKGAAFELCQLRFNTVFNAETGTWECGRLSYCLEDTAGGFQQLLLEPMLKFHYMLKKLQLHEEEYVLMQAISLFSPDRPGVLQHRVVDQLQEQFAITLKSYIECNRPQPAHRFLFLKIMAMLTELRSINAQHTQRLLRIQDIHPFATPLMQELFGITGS
The data set is described as follows: […] at PXR LBD (unknown origin) expressed in HEK293 cells […] at 10 uM after 16 hrs by luciferase reporter gene assay relative to rifampicin. In kind it is ADME, cell-based. To be noted: HEK293 cells expressing PXR LBD, read-out: Efficacy.

Data set [12] has as its target RAC-alpha serine/threonine-protein kinase (Homo sapiens) (UniProt P31749). The data set is described as follows: Inhibition of recombinant full length His-tagged human AKT1 expressed in baculovirus expression system at 10 uM in presence of ATP relative to control.
In data set [13] the target is Insulin receptor (Homo sapiens) (UniProt P06213). Kind of data set: Inhibition of recombinant His-tagged human InsR (1011 to 1382 residues) expressed in baculovirus expression system at 10 uM in presence of ATP relative to control.
Sequence of Insulin receptor (Homo sapiens) (P06213 28-758 limits assumed): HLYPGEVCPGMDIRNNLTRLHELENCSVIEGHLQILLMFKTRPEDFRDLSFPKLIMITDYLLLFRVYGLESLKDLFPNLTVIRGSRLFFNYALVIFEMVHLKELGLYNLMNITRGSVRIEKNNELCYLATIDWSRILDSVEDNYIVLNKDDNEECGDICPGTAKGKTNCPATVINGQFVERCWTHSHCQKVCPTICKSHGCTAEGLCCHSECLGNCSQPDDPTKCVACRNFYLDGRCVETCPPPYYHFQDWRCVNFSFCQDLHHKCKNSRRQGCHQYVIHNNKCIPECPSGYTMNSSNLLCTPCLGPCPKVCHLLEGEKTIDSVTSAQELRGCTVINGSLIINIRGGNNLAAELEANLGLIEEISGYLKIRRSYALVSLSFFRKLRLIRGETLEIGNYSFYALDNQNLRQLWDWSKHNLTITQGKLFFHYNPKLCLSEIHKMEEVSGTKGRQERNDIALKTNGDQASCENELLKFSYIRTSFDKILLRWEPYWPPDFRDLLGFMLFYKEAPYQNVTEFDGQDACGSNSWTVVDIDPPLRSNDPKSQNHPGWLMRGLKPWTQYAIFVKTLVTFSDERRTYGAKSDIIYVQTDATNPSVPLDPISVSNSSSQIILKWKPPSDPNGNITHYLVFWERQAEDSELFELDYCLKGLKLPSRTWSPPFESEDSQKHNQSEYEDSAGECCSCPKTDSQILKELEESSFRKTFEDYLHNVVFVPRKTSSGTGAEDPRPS
Sequence of Insulin receptor (Homo sapiens) (P06213 763-1382 limits assumed): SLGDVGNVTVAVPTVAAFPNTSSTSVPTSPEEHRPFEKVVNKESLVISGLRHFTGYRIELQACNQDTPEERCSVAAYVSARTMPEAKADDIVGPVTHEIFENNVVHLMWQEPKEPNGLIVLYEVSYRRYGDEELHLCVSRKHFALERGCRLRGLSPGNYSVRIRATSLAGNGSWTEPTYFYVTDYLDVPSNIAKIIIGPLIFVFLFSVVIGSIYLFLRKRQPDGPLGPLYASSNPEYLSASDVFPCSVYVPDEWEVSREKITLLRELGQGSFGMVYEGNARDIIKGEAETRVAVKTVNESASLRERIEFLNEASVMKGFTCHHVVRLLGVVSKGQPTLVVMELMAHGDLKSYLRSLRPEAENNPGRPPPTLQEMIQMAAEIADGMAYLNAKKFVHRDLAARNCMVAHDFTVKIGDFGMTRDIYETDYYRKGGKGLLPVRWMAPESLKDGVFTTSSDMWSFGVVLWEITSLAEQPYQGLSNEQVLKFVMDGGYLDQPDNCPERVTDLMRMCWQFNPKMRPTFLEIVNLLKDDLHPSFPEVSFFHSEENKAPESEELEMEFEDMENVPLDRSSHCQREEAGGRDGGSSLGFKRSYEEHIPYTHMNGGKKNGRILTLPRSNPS
The target of data set [14] is C-X-C chemokine receptor type 2 (Homo sapiens) (UniProt P25025). The data set is described as follows: Displacement of [125I]IL-8 from human recombinant CXCR2 receptor at 1 uM after 60 mins by scintillation counting analysis relative to control.
Data set [15] deals with Somatostatin receptor. The data set is described as follows: Displacement of [125I]Tyr11-somatostatin-14 from mouse SST receptor after 60 mins by scintillation counting analysis. In kind it is protein assay.
Data set [16] addresses Sodium-dependent dopamine transporter (Homo sapiens) (UniProt Q01959). Kind of data set: Displacement of [3H][…] from recombinant human Dopamine transporter at 10 uM after 120 mins by scintillation counting analysis relative to control.
Data set [17] has as its target D(1A) dopamine receptor (Homo sapiens, UniProt P21728). Kind of data set: Displacement of [3H]-SCH 23390 from human recombinant dopamine D1 receptor at 10 uM after 60 mins by scintillation counting analysis relative to control.
Data set [18] concerns the target Neuropeptide Y receptor type 1 (Homo sapiens) (UniProt P25929). Kind of data set: Displacement of [125I]peptide YY from human Y1 receptor at 1 uM after 120 mins by scintillation counting analysis relative to control.
Data set [19] concerns the target Ribosomal protein S6 kinase alpha-2 (Homo sapiens) (UniProt Q15349). Kind of data set: Inhibition of recombinant full length GST-tagged human RSK3 expressed in insect cells at 10 uM in presence of ATP relative to control.
Data set [20] has as its target Protein kinase C beta type (Homo sapiens) (UniProt P05771). Kind of data set: Inhibition of PKCbeta1 (unknown origin) at 10 uM in presence of ATP relative to control.
In data set [21] the target is Nociceptin receptor (Homo sapiens, UniProt P41146). Kind of data set: Displacement of [3H]nociceptin from human recombinant NOP receptor after 60 mins by scintillation counting analysis.
Sequence of Nociceptin receptor (P41146 whole entry): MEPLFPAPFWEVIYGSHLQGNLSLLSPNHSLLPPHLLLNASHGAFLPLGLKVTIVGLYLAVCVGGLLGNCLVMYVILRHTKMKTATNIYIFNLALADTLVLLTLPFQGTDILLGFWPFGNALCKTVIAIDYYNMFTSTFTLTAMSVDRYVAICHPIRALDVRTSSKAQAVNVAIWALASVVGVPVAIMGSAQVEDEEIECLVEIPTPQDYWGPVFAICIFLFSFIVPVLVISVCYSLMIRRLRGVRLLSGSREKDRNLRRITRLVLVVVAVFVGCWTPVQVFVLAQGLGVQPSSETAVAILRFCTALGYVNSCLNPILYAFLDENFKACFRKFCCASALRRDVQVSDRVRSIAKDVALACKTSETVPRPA
The target in data set [22] is Cytochrome P450 2C19 (Homo sapiens, UniProt P33261). Kind of data set: Inhibition of CYP2C19 (unknown origin). In kind it is ADME.

Sequence of Cytochrome P450 2D6 (P10635 whole entry): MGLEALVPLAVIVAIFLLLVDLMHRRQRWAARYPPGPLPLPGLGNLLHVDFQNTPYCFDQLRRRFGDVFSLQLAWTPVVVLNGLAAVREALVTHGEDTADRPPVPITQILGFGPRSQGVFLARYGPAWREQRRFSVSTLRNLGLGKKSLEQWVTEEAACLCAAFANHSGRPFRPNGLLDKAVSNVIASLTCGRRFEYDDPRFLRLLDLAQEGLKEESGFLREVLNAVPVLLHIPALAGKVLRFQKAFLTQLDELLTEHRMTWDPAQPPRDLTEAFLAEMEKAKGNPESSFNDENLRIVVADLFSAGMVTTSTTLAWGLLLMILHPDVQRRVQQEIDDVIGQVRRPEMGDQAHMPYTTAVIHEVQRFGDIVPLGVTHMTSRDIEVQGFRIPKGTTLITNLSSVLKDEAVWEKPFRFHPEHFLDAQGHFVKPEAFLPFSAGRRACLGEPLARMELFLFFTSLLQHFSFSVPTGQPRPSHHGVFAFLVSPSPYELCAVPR
Sequence of RAC-alpha serine/threonine-protein kinase (Homo sapiens) (P31749 whole entry, the tested form may be a part): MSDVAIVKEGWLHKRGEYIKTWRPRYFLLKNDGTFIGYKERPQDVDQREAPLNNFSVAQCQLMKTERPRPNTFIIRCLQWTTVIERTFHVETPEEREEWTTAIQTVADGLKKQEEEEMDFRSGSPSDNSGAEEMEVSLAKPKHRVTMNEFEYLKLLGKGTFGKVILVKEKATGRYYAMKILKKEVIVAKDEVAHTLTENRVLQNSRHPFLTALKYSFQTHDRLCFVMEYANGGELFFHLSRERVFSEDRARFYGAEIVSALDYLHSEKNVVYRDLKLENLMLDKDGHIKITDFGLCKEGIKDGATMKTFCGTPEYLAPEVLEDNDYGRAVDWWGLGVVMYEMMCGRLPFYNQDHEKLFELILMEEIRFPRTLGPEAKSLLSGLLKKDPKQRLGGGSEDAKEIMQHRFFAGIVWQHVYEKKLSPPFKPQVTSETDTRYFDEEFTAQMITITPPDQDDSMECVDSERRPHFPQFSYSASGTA
Sequence of Aurora kinase A (Homo sapiens) (O14965 whole entry): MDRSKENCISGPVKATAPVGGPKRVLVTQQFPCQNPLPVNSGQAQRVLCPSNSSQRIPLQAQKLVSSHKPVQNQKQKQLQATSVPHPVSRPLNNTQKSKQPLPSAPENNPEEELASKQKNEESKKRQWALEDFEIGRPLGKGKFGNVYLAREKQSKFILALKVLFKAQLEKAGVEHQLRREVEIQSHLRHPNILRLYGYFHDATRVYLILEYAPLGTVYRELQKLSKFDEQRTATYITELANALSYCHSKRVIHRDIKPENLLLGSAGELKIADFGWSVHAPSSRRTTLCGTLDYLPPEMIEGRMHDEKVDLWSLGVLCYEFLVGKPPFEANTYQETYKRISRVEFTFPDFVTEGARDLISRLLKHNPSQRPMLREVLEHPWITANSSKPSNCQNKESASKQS
Sequence of Sodium-dependent dopamine transporter (Homo sapiens) (Q01959 whole entry): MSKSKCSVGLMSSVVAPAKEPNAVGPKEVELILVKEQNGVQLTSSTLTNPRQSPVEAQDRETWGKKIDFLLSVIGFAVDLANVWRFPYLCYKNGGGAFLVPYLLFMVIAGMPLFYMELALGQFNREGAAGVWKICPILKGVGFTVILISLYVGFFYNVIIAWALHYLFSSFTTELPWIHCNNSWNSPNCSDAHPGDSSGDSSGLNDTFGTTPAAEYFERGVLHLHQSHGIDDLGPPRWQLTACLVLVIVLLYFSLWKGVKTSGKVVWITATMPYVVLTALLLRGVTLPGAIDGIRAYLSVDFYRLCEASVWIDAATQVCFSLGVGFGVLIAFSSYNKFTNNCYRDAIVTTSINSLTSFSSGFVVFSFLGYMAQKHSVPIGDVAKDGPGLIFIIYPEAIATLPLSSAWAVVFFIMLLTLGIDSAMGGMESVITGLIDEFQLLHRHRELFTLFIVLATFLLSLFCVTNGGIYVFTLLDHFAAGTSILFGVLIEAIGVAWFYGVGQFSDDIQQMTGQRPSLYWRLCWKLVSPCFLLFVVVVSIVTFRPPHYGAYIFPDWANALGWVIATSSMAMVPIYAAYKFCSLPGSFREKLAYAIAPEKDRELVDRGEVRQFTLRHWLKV
Sequence of Histamine H1 receptor (P35367 whole entry, the tested form may be a part): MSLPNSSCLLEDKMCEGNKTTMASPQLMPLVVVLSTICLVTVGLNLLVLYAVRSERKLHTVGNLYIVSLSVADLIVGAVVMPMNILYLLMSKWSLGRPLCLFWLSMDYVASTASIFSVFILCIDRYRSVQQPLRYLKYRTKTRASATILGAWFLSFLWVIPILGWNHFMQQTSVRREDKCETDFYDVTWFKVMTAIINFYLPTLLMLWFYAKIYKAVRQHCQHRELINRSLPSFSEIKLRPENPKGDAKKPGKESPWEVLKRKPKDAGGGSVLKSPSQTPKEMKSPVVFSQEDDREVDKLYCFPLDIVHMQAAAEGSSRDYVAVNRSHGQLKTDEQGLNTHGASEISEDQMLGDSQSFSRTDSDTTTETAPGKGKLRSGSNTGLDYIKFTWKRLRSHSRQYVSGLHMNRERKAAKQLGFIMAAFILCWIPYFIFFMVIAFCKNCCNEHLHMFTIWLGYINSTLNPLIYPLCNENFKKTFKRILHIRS
Sequence of Ribosomal protein S6 kinase alpha-2 (Homo sapiens) (Q15349 whole entry): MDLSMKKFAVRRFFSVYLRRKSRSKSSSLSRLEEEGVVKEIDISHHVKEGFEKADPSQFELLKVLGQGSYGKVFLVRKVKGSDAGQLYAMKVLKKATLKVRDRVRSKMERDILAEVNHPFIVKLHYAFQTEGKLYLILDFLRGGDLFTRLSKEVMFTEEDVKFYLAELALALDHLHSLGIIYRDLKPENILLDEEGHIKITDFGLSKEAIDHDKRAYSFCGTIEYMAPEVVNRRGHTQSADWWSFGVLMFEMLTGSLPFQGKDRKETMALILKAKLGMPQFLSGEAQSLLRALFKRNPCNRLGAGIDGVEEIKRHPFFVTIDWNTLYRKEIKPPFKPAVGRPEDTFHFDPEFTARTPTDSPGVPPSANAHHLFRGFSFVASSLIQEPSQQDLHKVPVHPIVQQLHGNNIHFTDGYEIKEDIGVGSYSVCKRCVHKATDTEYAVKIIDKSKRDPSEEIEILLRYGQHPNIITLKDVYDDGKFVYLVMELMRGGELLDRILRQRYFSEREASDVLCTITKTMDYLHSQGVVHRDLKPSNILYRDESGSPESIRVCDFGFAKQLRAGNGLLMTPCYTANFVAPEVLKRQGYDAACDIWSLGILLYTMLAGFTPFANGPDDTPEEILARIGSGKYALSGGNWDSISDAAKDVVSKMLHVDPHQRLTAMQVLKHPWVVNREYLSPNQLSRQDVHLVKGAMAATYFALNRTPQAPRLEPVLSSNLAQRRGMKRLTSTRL

As for `CC(C)(C)NS(=O)(=O)c1ccc(-c2sc(C(=O)N[C@H]3C[C@H](C(=O)O)C3)nc2CC2CCCCC2)c2ccccc12`, the inhibition in [1] is 54%; in data set [2], 2%; in data set [3], -4%; in data set [4], -3%; in data set [6] it was -5%; in [7] it was 12%. Also, the inhibition in [10] is < 10%; in data set [12], -5%; in data set [13] it was -4%; in [14], < 10%; in [16] it was 47%; in [17] it was 12%. In addition, the figures for the inhibition in data set [18], in data set [19] and in data set [20] were < 10%, -4% and -2%, respectively. Moreover, the half-maximal inhibitory concentration (IC50) in data set [5] is 164 nM; in [8] it was 0.64 nM; in [15], 0.31 nM; in [21], 0.98 nM. Also, the INH in data set [9] and in data set [22] was > 10 µM throughout. In [11], the Emax at 16 h, 10 µM worked out at 195%.
